Measured values reported in patent US20190086390A1, “INDIRECT ASSESSMENT OF INSULIN RELEASE IN A CELL” (Board of Supervisors of Louisiana State University and …, priority 2016, published 2019).

Key:
Assay type in all cases: cell-based, rat
Nkx6.1 = Nkx6.1 protein abundance, immunoblot of cytosolic and nuclear fractions; settings: 832/13 cells, IL-1β 4 h
Description: (§1) Cell lysis and extraction of cytoplasmic and nuclear protein fractions was performed using the NE-PER kit (Thermo Fisher Scientific) according to the manufacturer's directions. The protein concentration of the lysate was determined using the bicinchoninic acid assay (Thermo Fisher Scientific), using BSA as the standard. SDS-PAGE, transfer to polyvi-nylidene difluoride membranes, membrane blocking before antibody incubation, and downstream subsequent detection using a ChemiDoc imaging system (Bio-Rad) have been described previously (16). Antibodies detecting β-actin or tubulin were used as loading controls. Antibodies used were from the following sources: iNOS (Santa Cruz Biotechnology), (3-actin (Cell Signaling Technology), Ikα: (Santa Cruz Biotechnology), tubulin (Cell Signaling Technology), and Pdx-1 (Cell Signaling Technology). The antibody recognizing Nkx6.1 has been described (34). Immunoblot images were quantified using Image Lab software (Bio-Rad).

832/13 cells [1] = experiment: Tritiated thymidine incorporation into DNA (proliferation); settings: IL-1β 18 h
Description: 832/13 cells were grown in 12-well plates and treated as indicated. Glucose-stimulated insulin secretion (GSIS) assays were performed as described previously (29). Insulin secretion by cell lines into the media was measured using either the High Range Rat Insulin ELISA kit (Mercodia, Uppsala, Sweden) or by rat islets using the insulin radioimmunoassay (Siemens, Malvern, Pa.) according to the company directions. In addition, cells were lysed using M-PER lysis reagent (Thermo Fisher Scientific) to quantify total intracellular protein content via BCA assay (Thermo Fisher Scientific). Insulin secretion data were normalized to total protein to account for any differences in cell number between treatment groups. Incorporation of tritiated thymidine into DNA as a cellular index of proliferation was carried out as described (45).

832/13 and 833/15 cells = experiment: Mitochondrial/nuclear DNA ratio analysis; settings: 6 or 18 h
Description: Genomic DNA was isolated using a DNeasy kit from Qiagen (Valencia, Calif.) per the manufacturer's protocol and quantified via quantitative PCR using iTaq Universal SYBR Green Supermix (Bio-Rad). Mitochondrial number was determined as the expression of genes encoded by mitochondrial DNA (COI and ATP6) relative to nuclear genes (NDUFA and SDHA) using the AACT method. This methodology has been described previously (24).

832/13 cells [2] = experiment: Live cell calcium imaging, glucose-induced calcium response (Calcium Green)
Description: 832/13 cells were plated into six-well plates containing poly-d-lysine-coated coverslips (Neuvitro, Vancouver, Wash.). At 50% confluence, cells were treated for 18 h with one of four experimental groups: 1 ng/ml […] alone, 1 mM I-NMMA alone, IL-1β+ I-NMMA, or normal growth media. Immediately prior to imaging, cells were preloaded with Calcium Green 1 AM (CG, C3012; Life Technologies) by transferring coverslips to a solution of 10|×M CG in 20% Pluronic F127 in DMSO (Life Technologies) made up in carbogenated (95% 02-5% C02) normal Krebs. The recipe for normal Krebs solution was (in mM) 124 NaCl, 25 NaHC03, 2 glucose, 3 KC1, 2 CaCl2, 1.5 NaH2P04, and 1 MgS04-7H20, which corrected to pH 7.4 with HCl. After incubation in the CG solution for 30 min, coverslips were transferred to carbogenated normal Krebs at 29° C.
Coverslips were transferred to a recording chamber on a fixed stage Zeiss Axioskop2 microscope equipped with a Perkin Elmer Ultra-view/Yokogawa C10 spinning disk laser confocal illuminator. Cells were illuminated with the 488 nm laser; CG-calcium fluorescence signals were collected at 509 nm. Cells were visualized with a X40 water immersion objective. Images were collected with a Hammamatsu Ocra-ER charge-coupled device camera. The confocal system, including image collection, was controlled by Perkin-Elmer Improvision software.
Cells on coverslips were constantly perfused with normal Krebs solution at 29° C. at a rate of 3 ml/min. After 10 min, the perfusion solution was switched to one containing 12 mM glucose and proportionally less sodium chloride to maintain osmolality. The 12 mM glucose challenge was applied for 5 min, followed by a 5 min washout period. Images of CG-labeled cells were collected continuously during the challenge period at a rate of 20/min, with each frame taking 1 s. Images were collected as TIFF stacks and processed using Nikon Elements AR software. Individual cells in the field were designated as regions of interest (ROI), and their fluorescence signal over time was captured. Background fluorescence was subtracted from the fluorescence signal of individual ROIs. The relative changes in cytoplasmic calcium in the cells were expressed as changes in fluorescence [(AF/F) %], where F is the intensity of the baseline fluorescence signal before stimulation and AF is the difference between the peak fluorescence intensity and the baseline signal. Therefore, magnitude of response was normalized for each individual ROI.

Pdx-1 = Pdx-1 protein abundance, immunoblot; settings: 832/13 cells, IL-1β 4 h
Description: as §1

832/13 cells [3] = experiment: Oxygen consumption rate (Seahorse XF24); settings: 1 ng/ml IL-1β, 18 h
Description: Oxygen consumption rates (OCR) were measured using the XF^24 Extracellular Flux Analyzer (Seahorse Bioscience, Chicopee, Mass.). 832/13 cells were grown on cell culture plates for 2 days prior to OCR assays being run. Cells were treated with vehicle, 1 ng/ml IL-β, 1 mM I-NMMA, or both IL-1β (1 ng/ml) plus I-NMMA (1 mM) for 18 h prior to OCR being measured. The oxygen consumption rate was measured over a 2-h period. Data represent the calculated average area under the curve from six wells per treatment group over multiple independent experiments.

[4] = pretreated 18 h with IL-1β alone, 12 mM glucose

IL-1β: proinflammatory cytokine purchased from Thermo Fisher Scientific, used at 1 ng/ml
decrease in Nkx6.1 abundance (Nkx6.1): 47%
ability to incorporate thymidine into DNA (832/13 cells [1]): reduced markedly
mitochondrial/nuclear DNA ratios (832/13 and 833/15 cells): did not detect any alterations
average response magnitude (change in fluorescence) (832/13 cells [2]; [4]): 20%
cells responding to the glucose challenge (832/13 cells [2]; [4]): 61%
reduction of responses relative to control group (832/13 cells [2]; pretreated with IL-1β alone): 39%
amount of Pdx-1 protein (Pdx-1): unchanged
decrease in cellular oxygen consumption rate (832/13 cells [3]): 25%
